Data set [1] addresses T1, Aβ1-42 (Homo sapiens, UniProt P05067).
T1 construct: purchased Genecust, Boynes, France
To be noted: thioflavin T fluorescence method; cited from earlier work.

Data set [2] deals with T2, electric eel acetylcholinesterase (eeAChE) (Electrophorus electricus, UniProt O42275).
T2 construct: purchased Sigma-Aldrich (Steinheim, Germany)
The experiment in a line: AChE inhibition, adapted Ellman method. The format is biochemical. The settings on record: mean of two independent experiments ± SD, read-out: AChE Inhib IC50. As to the method: (§1) The enzyme inhibition of electric eel acetylcholinesterase (eeAChE) and equine butyrylcholinesterase (eqBChE) by our compounds was evaluated through an adaptation of Elmman´s method using reagents from Sigma-Aldrich (Steinheim, Germany). Stock solutions of each compound (1 mg) in MeOH (1 mL) were prepared and then working solutions for each ligand were obtained by the corresponding dilution of the stock solutions. A control measurement with 5 replicates (without ligand) and a calibration curve of 5 points with 3 replicates per point was performed. The preparation of each solution involved fixed volumes of 4-(2-hydroxyethyl)-1-piperazine-ethanesulfonic acid (HEPES) and cholinesterase (eeAChE or eqBChE) with different volumes of ligand solution, and it was left to rest for 15 min immediately after adding the cholinesterase. A blank solution containing HEPES and MeOH was also prepared at the same time. […] The slope for each calibration point (absorbance versus reaction time) was determined and the inhibition for each compound was calculated by using the following equation: %Inhibition=100−(vi/v0×100) where vi is the reaction rate (slope) for each point of the calibrate with ligand and v0 is the initial reaction rate (slope) for the control point (without ligand). […] Experiments were performed twice for each compound.
(Ellman's reagent forms a yellow product with free thiols.)

The test system of data set [3] is SH-SY5Y cells. The experiment in a line: Neuroprotection against iron/ascorbate-induced toxicity, MTT. Type of data set: cell-based, human. To be noted: ferrous sulfate 5 mM and L-ascorbic acid 2.5 mM, 24 h, optimized concentration of each compound. As to the method:
(§2) Cell viability, following treatment with the compounds, was determined using the colorimetric MTT (3-(4,5-dimethylthiazol-2-yl)-2,5-diphenyltetrazolium bromide) assay. The tested compounds (5a1-3, 5b1-3, 5c1-3) were dissolved in DMSO to produce stock solutions of 25 mM and stored at −20 °C. A concentration screening was performed for 0.5 µM to 20 µM final concentrations to choose the highest nontoxic concentration. SH-SY5Y human neuroblastoma cell line (ATCC-CRL-2266) was cultured in Dulbecco’s modified Eagle’s medium (DMEM) (Gibco-Invitrogen, Life Technologies Ltd., Waltham, MA, USA) with heat-inactivated fetal calf serum (10%), penicillin (50 U/mL) and streptomycin (50 µg/mL) at 37 °C with 5% CO2. Cells were plated at 0.15 × 10^6 cells/mL one day prior to the start of the experiment. The cells were then incubated with the appropriate concentration of the compounds for 24 h. After the incubation period, the cells were washed once with PBS and incubated with 200 µL MTT (0.5 mg/mL) for 2 h at 37 °C with 5% CO2. During this period, cellular dehydrogenase successfully metabolized MTT into formazan, which was then solubilized using 200 µL of 0.04 M HCl/isopropanol. Absorbance was measured at 570 nm.
To test whether the compounds have a protective effect against toxicity induced by Aβ1-42 or iron/ascorbate, the cells were pre-incubated for 1 h with each compound, followed by the addition of Aβ1-42 or iron/ascorbate and incubation for an additional 24 h. Aβ1-42 (Bachem, Torrance, CA, USA) was prepared in sterile water to produce a stock solution of 443 µM and added to the cells at a final concentration of 1 µM. […] All data are expressed as mean ± SEM of at least three independent experiments performed in duplicate. […]
Figure 5 Neuroprotective effect of RIV-IND compounds against cellular toxicity induced by iron/ascorbate (Fe/Asc) measured by MTT reduction ability on SH-SY5Y cells pretreated with iron/ascorbate for one hour, followed by a 24 h incubation with the optimized concentration of each compound. […]

Data set [4] has as its target T3, equine butyrylcholinesterase (eqBChE) (Equus caballus, UniProt P81908).
T3 construct: purchased Sigma-Aldrich (Steinheim, Germany)
The experiment in a line: BChE inhibition, adapted Ellman method. Type of data set: biochemical. On the procedure:
as §1

The subject of data set [5] is SH-SY5Y cells. The experiment in a line: Cell viability dose-response screening, MTT. Type of data set: cell-based, human. To be noted: 24 h, screening 0.5 µM to 20 µM. As to the method: as §2
The new RIV-IND hybrids were tested to determine their protective role in the toxicity induced by either Aβ1-42 peptides or iron/ascorbate. SH-SY5Y cells were incubated with a set of concentrations of each of the compounds and a dose–response curve was constructed to select the highest nontoxic concentration.
Figure 3 Dose–response screening of RIV-IND compounds 5a1-3, 5b1-3 and 5c1-3 measured by MTT reduction ability on SH-SY5Y cells treated with different concentrations of the compounds for 24 h. Results are expressed relatively to untreated cells, with the mean ± standard error of the mean (SEM) derived from three independent experiments. * p < 0.05; ** p < 0.01; *** p < 0.001 compared to untreated cells. (The dot line indicates 100% cellular viability).

Data set [6] has as its target T1, Aβ1-42. As to the kind of experiment: Inhibition of Aβ1-42 self-aggregation, thioflavin T fluorescence. The format is biochemical. To be noted: Cinhibitor = 20 µM, Aβ1-42 40 µM, 37 °C, 24 h, read-out: Aβ42 Self-Aggreg. Inhib. On the procedure:
The Aβ peptide (Genecust, Boynes, France) was treated with 1,1,1,3,3,3-hexafluoropropan-2-ol (HFIP, Aldrich, Steinheim, Germany) and dissolved in a CH3CN/Na2CO3 (300 µM)/NaOH (250 µM) ([…], v/v/v) mixture in order to have a stable stock solution of Aβ1-42 with concentration 500 µM.
Solutions of the assayed compounds (0.5 mg/mL) were firstly prepared in 60% (v/v) DMSO/MeOH medium and then diluted in phosphate buffer (0.215 M, pH 8.0) to a concentration of 120 µM. The Aβ1-42 aggregation inhibition assays were performed according to a reported method based on the fluorescence emission of thioflavin T (ThT, Aldrich Steinheim, Germany). Therefore, Aβ1-42 (40 µM) was incubated at 37 °C for 24 h in phosphate buffer and in the presence or absence of each ligand (20 µM). Then, the samples were added to a 96-well plate with 180 µL of 5 µM ThT in 50 mM glycine-NaOH (pH 8.5) buffer. Blank samples were identically prepared for each concentration but in the absence of the peptide. The ThT fluorescence was measured at 445 nm (excitation) and 485 nm (emission). The percent of aggregation inhibition was calculated by the following equation:I% = 100 − (IFi/IF0 × 100), in which IFi and IF0 are the fluorescence intensities, in the presence and the absence of the tested compound, subtracted from the fluorescence intensities due to the respective blanks. The reported values were obtained as the mean ± SEM of two different experiments performed in duplicate.
The inhibitory capacity of the RIV-IND hybrids towards Aβ42 self-aggregation was evaluated in vitro by molecular fluorescence spectroscopy through the thioflavin T (ThT) method. In fact, since there is an increase in the absorbance and emission of ThT when it binds to amyloid fibrils, it is possible to determine the percent of Aβ42 self-aggregation (see Table 1). The assays were performed in the presence of 20 µM of inhibitor to overcome the solubility limitations of some compounds in the phosphate buffer aqueous medium.

The nature of data set [7]: DPPH free radical scavenging (antioxidant) assay. To be noted: read-out: Antioxidant Activity EC50; DPPH method, mean of three independent experiments. A general note: Loss of DPPH colour is used to gauge radical scavenging.
Details of data set [8]: method as in PMID 23344203. The settings on record: reference antioxidant; read-out: radical scavenging activity EC50; cited from earlier work.

The structures appear in SMILES notation. “Also recorded” adds a separate entry of the source. Like-named read-outs stand apart in the source and are kept apart here.

We go through three molecules from paper PMC10892719 (Pharmaceutics, 2024).

T3 sequence (P81908 whole entry): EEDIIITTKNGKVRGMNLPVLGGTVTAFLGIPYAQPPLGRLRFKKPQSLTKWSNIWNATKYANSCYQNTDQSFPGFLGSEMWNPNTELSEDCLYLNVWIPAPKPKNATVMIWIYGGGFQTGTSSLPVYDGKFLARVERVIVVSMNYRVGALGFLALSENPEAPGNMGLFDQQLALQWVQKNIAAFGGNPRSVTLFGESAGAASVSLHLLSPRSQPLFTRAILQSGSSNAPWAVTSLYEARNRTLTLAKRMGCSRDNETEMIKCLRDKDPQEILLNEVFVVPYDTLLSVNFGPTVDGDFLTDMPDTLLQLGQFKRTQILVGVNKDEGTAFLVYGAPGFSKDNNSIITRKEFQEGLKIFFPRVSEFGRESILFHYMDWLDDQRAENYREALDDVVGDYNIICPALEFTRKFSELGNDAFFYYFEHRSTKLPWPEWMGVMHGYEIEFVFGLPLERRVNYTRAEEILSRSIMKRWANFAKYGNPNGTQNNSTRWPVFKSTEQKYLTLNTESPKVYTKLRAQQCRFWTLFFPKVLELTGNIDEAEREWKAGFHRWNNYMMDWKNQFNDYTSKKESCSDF
T1 sequence (P05067 672-713 limits assumed): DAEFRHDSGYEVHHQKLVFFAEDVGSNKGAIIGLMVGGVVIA
T2 sequence (O42275 24-633): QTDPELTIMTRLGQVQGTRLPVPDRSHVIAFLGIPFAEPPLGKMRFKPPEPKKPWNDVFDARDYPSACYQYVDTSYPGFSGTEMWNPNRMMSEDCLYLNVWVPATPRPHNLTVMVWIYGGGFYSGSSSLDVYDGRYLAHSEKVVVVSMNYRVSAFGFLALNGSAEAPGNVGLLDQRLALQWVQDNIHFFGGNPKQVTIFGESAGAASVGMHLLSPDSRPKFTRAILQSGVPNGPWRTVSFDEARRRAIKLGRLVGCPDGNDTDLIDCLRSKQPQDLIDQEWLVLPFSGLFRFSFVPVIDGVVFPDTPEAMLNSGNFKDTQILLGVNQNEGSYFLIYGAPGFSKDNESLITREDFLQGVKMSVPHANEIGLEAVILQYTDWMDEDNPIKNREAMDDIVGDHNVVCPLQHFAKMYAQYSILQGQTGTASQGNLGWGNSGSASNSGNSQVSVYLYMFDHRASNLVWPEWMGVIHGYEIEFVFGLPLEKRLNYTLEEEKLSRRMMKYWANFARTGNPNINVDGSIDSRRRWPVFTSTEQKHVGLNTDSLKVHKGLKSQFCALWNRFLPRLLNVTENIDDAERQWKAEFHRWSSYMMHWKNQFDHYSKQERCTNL

`COc1cc(/C=C/C(=O)CC(=O)/C=C/c2ccc(O)c(OC)c2)ccc1O` [Curcumin, curcumin]: the “Aβ42 Self-Aggreg. Inhib” value in data set [1] is 65.7%.

One may read the IC50 as the concentration at which inhibition is half-maximal. Broadly, the EC50 is the concentration at which the effect is half-maximal. Consider `CCN(C)C(=O)Oc1cccc(CNC(=O)c2cc3cccc(O)c3[nH]2)c1` [Compound 5b3, 3-((7-Hydroxy-1H-indole-2-carboxamido)methyl)phenyl-ethyl(methyl)carbamate], for which the IC50 in data set [2] amounted to 80.7 ± 0.4 µM; in data set [4] (eqBChE, mean of two independent experiments ± SD, read-out: BChE Inhib IC50), 5.7 ± 0.3 µM. The “neuroprotective effect against toxicity induced by iron/ascorbate” value in data set [3] was “able to significantly increase cell viability after the trigger; also recorded: able to significantly protect cell viability after iron/ascorbate oxidative insult”. Moreover, the “SI (selectivity index)” value in data set [4] (IC50 (AChE)/IC50 (BChE)) amounted to 14.2. The molecule further showed a highest nontoxic concentration in data set [5] of 10 µM. Further, in data set [6], the inhibition at 20 µM came out at 47.8%. Besides, the EC50 in data set [7] stood at 20.2 ± 0.4 µM.

As for `O=C1O[C@H]([C@@H](O)CO)C(O)=C1O` [vitamin C], in data set [8], the EC50 was 15 µM.
